Measured values published in doi:10.1101/2023.10.11.561987v1, “Resolving the pharmacological redox-sensitivity of SARS-CoV-2 PLpro in drug repurposing screening enabled identification of the competitive GRL-0617 binding site inhibitor CPI-169” (biorxiv, 2023).

Target: T1, SARS-CoV-2 PLpro-NAB (Severe acute respiratory syndrome coronavirus 2, UniProt P0DTD1)
T1 construct: gene rep; nsp3 fragment with PLpro and NAB domains, cut from replicase polyprotein 1a/1ab; His tag removed by TEV; E. coli BL21(DE3), pET24b
Assay: biochemical
Type: biochemical

SMILES	IC50
NC(Cc1cc(O)c(O)cc1O)C(=O)O (racemic) [6-Hydroxy-DL-DOPA]	> 20 µM
Cc1nc2c(=O)n(C)c(=O)nc-2n(C)n1 [3-Methyl Toxoflavin]	0.074 µM
